In patent US20050197350A1, “Novel quinoline, tetrahydroquinazoline, and pyrimidine derivatives and methods of treatment related to the use thereof” (TAISHO PHARMACEUTICAL CO., LTD., priority 2003, published 2005):

Test system: MCH receptors
Test: MCH receptor activity class (method not given)
[1] = MCH receptor, class by percent of control at 10^-7 M or IC50
[2] = class by percent of control at 10^-7 M or IC50
[3] = activity class per percent of control at 10^-7 M or IC50
[4] = class by percent of control at 10^−7 M or IC50
[5] = MCH receptor activity class 1-3 (percent of control at 10^-7 M or IC50)

Row | Compound | class [2] | also measured
1 | CN(C)c1nc(N[C@H]2CC[C@@H](NC(=S)NCCCN3CCOCC3)CC2)nc2c1CCCC2 [compound 2078] |  | class [1]: 3 (Class 3 The value of percent of control at 10^−7 M was more than 60% or the value of IC50 was more than 200 nM.)
2 | CN(C)c1cc(N[C@H]2CC[C@@H](CNC(=O)c3cccc(Cl)c3Cl)CC2)nc2ccccc12 [compound 224] | 3 (Class 3 The value of percent of control at 10^−7 M was more than 60% or the value of IC50 was more than 200 nM.) | 
3 | Cc1cc(C)c(NC(=O)Nc2ccc(OC(F)(F)F)cc2)c(C(=O)N[C@H]2CC[C@@H](Nc3nc4c(c(N(C)C)n3)CCCC4)CC2)c1 [compound 993] |  | class [3]: 1 (Class 1: The value of percent of control at 10^−7 M was less than 40% or the value of IC50 was less than 50 nM.)
4 | CN(C)c1cc(N[C@H]2CC[C@@H](NC(=O)C(Cc3ccccc3)c3ccccc3)CC2)nc2ccccc12 (relative stereo) [compound 678] | 3 (Class 3 The value of percent of control at 10^−7 M was more than 60% or the value of IC50 was more than 200 nM.) | 
5 | CN(C)c1ccnc(N[C@H]2CC[C@@H](CNCc3ccc(O)cc3)CC2)n1 [compound 1275] | 3 (Class 3 The value of percent of control at 10^−7 M was more than 60% or the value of IC50 was more than 200 nM.) | 
6 | Cc1cc(N(C)C)nc(N[C@H]2CC[C@@H](NC(=O)c3ccc(Cl)c(Cl)c3)CC2)n1 [compound 2994, 3,4-dichloro-N-(cis-4-{[4-(dimethylamino)-6-methylpyrimidin-2-yl]amino}cyclohexyl)benzamide] |  | class [4]: 1 (Class 1: The value of percent of control at 10^−7 M was less than 40% or the value of IC50 was less than 50 nM.)
7 | CC(C)NC(=O)N[C@H]1CC[C@@H](Nc2nc3c(c(N(C)C)n2)CCCC3)CC1 [compound 1830] | 3 (Class 3 The value of percent of control at 10^−7 M was more than 60% or the value of IC50 was more than 200 nM.) | 
8 | COc1ccc(C(=O)N[C@H]2CC[C@@H](CNc3nc(C)cc(N(C)C)n3)CC2)cc1 [compound 2735] |  | class [4]: 3 (Class 3 The value of percent of control at 10^−7 M was more than 60% or the value of IC50 was more than 200 nM.)
9 | Cc1cc(C)c(CCNC[C@H]2CC[C@@H](Nc3cc(N(C)C)c4ccccc4n3)CC2)c(C)c1 [compound 1466] | 3 (Class 3 The value of percent of control at 10^−7 M was more than 60% or the value of IC50 was more than 200 nM.) | 
10 | CN(C)c1nc(N[C@H]2CC[C@@H](CNC(=O)c3cccc(Cl)c3Cl)CC2)nc2c1CCCC2 [compound 659] | 3 (Class 3 The value of percent of control at 10^−7 M was more than 60% or the value of IC50 was more than 200 nM.) | 
11 | CN(C)c1nc(N[C@H]2CC[C@@H](NC(=O)C3CC(=O)c4ccccc43)CC2)nc2c1CCCC2 (relative stereo) [compound 960] | 2 (Class 2: The value of percent of control at 10^−7 M was from 40% to 60% or the value of IC′50 was from 50 nM to 200 nM.) | 
12 | CN(C)c1nc(N[C@H]2CC[C@@H](CNCc3ccc(N(C)CCC#N)cc3)CC2)nc2c1CCCC2 [compound 1444] | 3 (Class 3 The value of percent of control at 10^−7 M was more than 60% or the value of IC50 was more than 200 nM.) | 
13 | CCc1ccccc1NC(=O)NC[C@H]1CC[C@@H](Nc2nc3c(c(N(C)C)n2)CCCC3)CC1 [compound 2469] |  | class [5]: 3 (Class 3 The value of percent of control at 10^−7 M was more than 60% or the value of IC50 was more than 200 nM.)
14 | Cc1ccc(C(=O)N[C@H]2CC[C@@H](Nc3nc(C)c(C)c(N(C)C)n3)CC2)cc1F [compound 2853, N-(cis-4-{[4-(dimethylamino)-5,6-dimethylpyrimidin-2-yl]amino}cyclohexyl)-3-fluoro-4-methylbenzamide] |  | class [4]: 1 (Class 1: The value of percent of control at 10^−7 M was less than 40% or the value of IC50 was less than 50 nM.)
15 | Cc1cccc(C(=O)N[C@H]2CC[C@@H](Nc3cc(N(C)C)c4ccccc4n3)CC2)c1N [compound 783] | 3 (Class 3 The value of percent of control at 10^−7 M was more than 60% or the value of IC50 was more than 200 nM.) | 
16 | CN(C)c1cc(N[C@H]2CC[C@@H](NC(=O)c3scc(S(C)(=O)=O)c3Cl)CC2)nc2ccccc12 [compound 764] | 3 (Class 3 The value of percent of control at 10^−7 M was more than 60% or the value of IC50 was more than 200 nM.) | 
17 | Cc1ccc(S(=O)(=O)n2ccc(C(=O)N[C@H]3CC[C@@H](Nc4cc(N(C)C)c5ccccc5n4)CC3)c2)cc1 [compound 762] | 3 (Class 3 The value of percent of control at 10^−7 M was more than 60% or the value of IC50 was more than 200 nM.) | 
18 | Cc1onc(-c2c(F)cccc2Cl)c1C(=O)N[C@H]1CC[C@@H](Nc2nccc(N(C)C)n2)CC1 [compound 318] | 2 (Class 2: The value of percent of control at 10^−7 M was from 40% to 60% or the value of IC′50 was from 50 nM to 200 nM.) | 
19 | Cc1cc(C(=O)NC[C@H]2CC[C@@H](Nc3nc4c(c(N(C)C)n3)CCCC4)CC2)c(C)o1 [compound 633] | 3 (Class 3 The value of percent of control at 10^−7 M was more than 60% or the value of IC50 was more than 200 nM.) | 

Row | Compound | class [2] | also measured
20 | CCCN(CCC)C(=O)[C@H](CCC(=O)N[C@H]1CC[C@@H](Nc2nc3c(c(N(C)C)n2)CCCC3)CC1)NC(=O)c1ccccc1 (relative stereo) [compound 1006] |  | class [3]: 1 (Class 1: The value of percent of control at 10^−7 M was less than 40% or the value of IC50 was less than 50 nM.)
21 | CN(C)c1nc(N[C@H]2CC[C@@H](NC(=S)NC34CC5CC(CC(C5)C3)C4)CC2)nc2c1CCCC2 (relative stereo) [compound 1962] |  | class [1]: 3 (Class 3 The value of percent of control at 10^−7 M was more than 60% or the value of IC50 was more than 200 nM.)
22 | CN(C)c1cc(N[C@H]2CC[C@@H](NC(=O)c3ccc([N+](=O)[O-])o3)CC2)nc2ccccc12 [compound 111, N-(cis-4-{[4-(dimethylamino)quinolin-2-yl]amino}cyclohexyl)-5-nitro-2-furamide] |  | class [1]: 1 (Class 1: The value of percent of control at 10^−7 M was less than 40% or the value of IC50 was less than 50 nM.)
23 | CN(C)c1nc(N[C@H]2CC[C@@H](NC(=S)Nc3ccc(OC(F)F)cc3)CC2)nc2c1CCCC2 [compound 1987] |  | class [1]: 3 (Class 3 The value of percent of control at 10^−7 M was more than 60% or the value of IC50 was more than 200 nM.)
24 | Cc1ccc(Oc2ncccc2C(=O)N[C@H]2CC[C@@H](Nc3cc(N(C)C)c4ccccc4n3)CC2)cc1 [compound 137, N-(cis-4-{[4-(dimethylamino)quinolin-2-yl]amino}cyclohexyl)-2-(4-methylphenoxy)nicotinamide] |  | class [1]: 1 (Class 1: The value of percent of control at 10^−7 M was less than 40% or the value of IC50 was less than 50 nM.)
25 | Cc1ccc(CNC[C@H]2CC[C@@H](Nc3nccc(N(C)C)n3)CC2)cc1 [compound 1307] | 3 (Class 3 The value of percent of control at 10^−7 M was more than 60% or the value of IC50 was more than 200 nM.) | 
26 | CN(C)c1ccnc(N[C@H]2CC[C@@H](NC(=O)C3(c4ccc(Cl)cc4)CCCC3)CC2)n1 [compound 317] | 2 (Class 2: The value of percent of control at 10^−7 M was from 40% to 60% or the value of IC′50 was from 50 nM to 200 nM.) | 
27 | CN(C)c1cc(N[C@H]2CC[C@@H](CNC(=O)c3ccc([N+](=O)[O-])s3)CC2)nc2ccccc12 [compound 802, N-[(cis-4-{[4-(dimethylamino)quinolin-2-yl]amino}cyclohexyl)methyl]-5-nitrothiophene-2-carboxamide] | 3 (Class 3 The value of percent of control at 10^−7 M was more than 60% or the value of IC50 was more than 200 nM.) | 
28 | CN(C)c1nc(N[C@H]2CC[C@@H](NC(=O)C(Cc3ccccc3)c3ccccc3)CC2)nc2c1CCCC2 (relative stereo) [compound 954] | 2 (Class 2: The value of percent of control at 10^−7 M was from 40% to 60% or the value of IC′50 was from 50 nM to 200 nM.) | 
29 | CN(C)c1cc(N[C@H]2CC[C@@H](NC(=O)c3cc(Cl)cc(Cl)c3NC(=O)C#Cc3ccccc3)CC2)nc2ccccc12 [compound 719] | 3 (Class 3 The value of percent of control at 10^−7 M was more than 60% or the value of IC50 was more than 200 nM.) | 
30 | Cc1cc(C(=O)NC[C@H]2CC[C@@H](Nc3nccc(N(C)C)n3)CC2)ccc1[N+](=O)[O-] [compound 940, N-[(cis-4-{[4-(dimethylamino)pyrimidin-2-yl]amino}cyclohexyl)methyl]-3-methyl-4-nitrobenzamide] | 1 (Class 1: The value of percent of control at 10^−7 M was less than 40% or the value of IC50 was less than 50 nM.) | 
31 | COc1ccc(CC(=O)N[C@H]2CC[C@@H](Nc3nccc(N(C)C)n3)CC2)cc1OC [compound 341] | 3 (Class 3 The value of percent of control at 10^−7 M was more than 60% or the value of IC50 was more than 200 nM.) | 
32 | CCCCc1ccc(NC(=S)N[C@H]2CC[C@@H](Nc3cc(N(C)C)c4ccccc4n3)CC2)c(C)c1 [compound 2313] |  | class [5]: 3 (Class 3 The value of percent of control at 10^−7 M was more than 60% or the value of IC50 was more than 200 nM.)
33 | COc1ccccc1CCNC[C@H]1CC[C@@H](Nc2nc3c(c(N(C)C)n2)CCCC3)CC1 [compound 1504] | 3 (Class 3 The value of percent of control at 10^−7 M was more than 60% or the value of IC50 was more than 200 nM.) | 
34 | COC(=O)[C@H](Cc1ccccc1)NC(=O)N[C@H]1CC[C@@H](Nc2nccc(N(C)C)n2)CC1 (relative stereo) [compound 2225] | 3 (Class 3 The value of percent of control at 10^−7 M was more than 60% or the value of IC50 was more than 200 nM.) | 
35 | COc1ccc(N(C)C(=O)N[C@H]2CC[C@@H](Nc3ncc(C)c(N(C)C)n3)CC2)cc1 [compound 3029, N′-(cis-4-{[4-(dimethylamino)-5-methylpyrimidin-2-yl]amino}cyclohexyl)-N-(4-methoxyphenyl)-N-methylurea] |  | class [4]: 1 (Class 1: The value of percent of control at 10^−7 M was less than 40% or the value of IC50 was less than 50 nM.)
36 | CN(C)c1nc(N[C@H]2CC[C@@H](NC(=O)Nc3c(F)cc(F)cc3Br)CC2)nc2c1CCCC2 [compound 1852] | 3 (Class 3 The value of percent of control at 10^−7 M was more than 60% or the value of IC50 was more than 200 nM.) | 
37 | COc1ccc(CNC[C@H]2CC[C@@H](Nc3cc(N(C)C)c4ccccc4n3)CC2)c2ccccc12 [compound 1126] |  | class [3]: 2 (Class 2: The value of percent of control at 10^−7 M was from 40% to 60% or the value of IC′50 was from 50 nM to 200 nM.)
